ChEMBL document CHEMBL1201862, “PubChem BioAssay data set” (2004)
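A five-concentration, 48-hour dose response in 96-well plates underlies each endpoint, interpolated linearly between surrounding concentrations. Here, GI50 denotes the concentration required for 50% inhibition of growth.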 The source made the active and inactive calls. Rule as the data show it: active = GI50 up to about 1.1 µM and inactive = higher.

Experiments:
Assay in all cases: inhibition of tumour cell growth, NCI panel, 48 h
786-0 = tested on: 786-0
CCRF-CEM = tested on: CCRF-CEM
IGROV-1 = tested on: IGROV-1
LOX IMVI = tested on: LOX IMVI
Malme-3M = tested on: Malme-3M
NCI-H226 = tested on: NCI-H226
NCI-H23 = tested on: NCI-H23
NCI-H460 = tested on: NCI-H460
RXF 393 = tested on: RXF 393
SK-MEL-28 = tested on: SK-MEL-28
SK-OV-3 = tested on: SK-OV-3
SN12C = tested on: SN12C
SW-620 = tested on: SW-620
HCC 2998 = tested on: HCC 2998
HOP-92 = tested on: HOP-92
OVCAR-5 = tested on: OVCAR-5
SF-268 = tested on: SF-268

SMILES	GI50 (786-0)	GI50 (CCRF-CEM)	GI50 (IGROV-1)	GI50 (LOX IMVI)	GI50 (Malme-3M)	GI50 (NCI-H226)	GI50 (NCI-H23)	GI50 (NCI-H460)	GI50 (RXF 393)	GI50 (SK-MEL-28)	GI50 (SK-OV-3)	GI50 (SN12C)	GI50 (SW-620)	GI50 (HCC 2998)	GI50 (HOP-92)	GI50 (OVCAR-5)	GI50 (SF-268)
Cc1ccccc1NC(=O)c1cc2cc(/N=N/c3ccccc3C(=O)O)ccc2oc1=O	27.1 µM (inactive)	19.7 µM (inactive)	25 µM (inactive)	16.4 µM (inactive)	6.75 µM (inactive)	20.8 µM (inactive)	3.11 µM (inactive)	21.1 µM (inactive)	17.4 µM (inactive)	13.5 µM (inactive)	28.2 µM (inactive)	18.6 µM (inactive)	27.4 µM (inactive)				
CCCCOC(=O)NC(=O)c1cn(C2CCCCC2)c(=O)[nH]c1=O	18.6 µM (inactive)	> 100 µM (inactive)	39.2 µM (inactive)	55.2 µM (inactive)	31 µM (inactive)	20.3 µM (inactive)	33 µM (inactive)	> 100 µM (inactive)		39.8 µM (inactive)	20.9 µM (inactive)	> 100 µM (inactive)	> 100 µM (inactive)	> 100 µM (inactive)	14.3 µM (inactive)	> 100 µM (inactive)	30.8 µM (inactive)
COc1ccccc1-n1c(N)c2c(C)c(-c3ccccc3)[nH]c2nc1=S	> 100 µM (inactive)	> 100 µM (inactive)		> 100 µM (inactive)	91.8 µM (inactive)	63 µM (inactive)	79.4 µM (inactive)	> 100 µM (inactive)		> 100 µM (inactive)		> 100 µM (inactive)	> 100 µM (inactive)	> 100 µM (inactive)	> 100 µM (inactive)	> 100 µM (inactive)	
CCOC(OC1=C(C#N)CCCC1)C(C)[Se]c1ccccc1 (configuration not stated)	15.5 µM (inactive)	21.7 µM (inactive)	29.2 µM (inactive)	16 µM (inactive)	55.3 µM (inactive)	30.7 µM (inactive)	16 µM (inactive)	54.1 µM (inactive)	15.2 µM (inactive)	26 µM (inactive)	> 100 µM (inactive)	25.2 µM (inactive)		> 100 µM (inactive)	31.6 µM (inactive)	> 100 µM (inactive)	18.5 µM (inactive)
Cc1ccc(S(=O)(=O)OCC23CCC(CC2)C2CC23)cc1 (configuration not stated)	61.2 µM (inactive)	39.7 µM (inactive)	> 100 µM (inactive)	42.7 µM (inactive)	48.8 µM (inactive)	61.2 µM (inactive)	38.3 µM (inactive)	42.4 µM (inactive)		96.6 µM (inactive)	> 100 µM (inactive)	45.4 µM (inactive)	87.1 µM (inactive)	> 100 µM (inactive)	25.8 µM (inactive)	> 100 µM (inactive)	37.5 µM (inactive)
CCCCCCCCCCCCCC(=O)OC1C(CO)OC(=O)C1O (configuration not stated)	> 100 µM (inactive)	89.9 µM (inactive)	> 100 µM (inactive)	> 100 µM (inactive)	> 100 µM (inactive)		> 100 µM (inactive)	> 100 µM (inactive)	> 100 µM (inactive)		> 100 µM (inactive)	> 100 µM (inactive)	> 100 µM (inactive)	> 100 µM (inactive)	26.7 µM (inactive)	> 100 µM (inactive)	> 100 µM (inactive)
O=C(O)C1=C(C(=O)Nc2ccc(NC(=O)C3=C(C(=O)O)C4C=CC3C4)cc2)C2C=CC1C2	> 100 µM (inactive)	> 100 µM (inactive)	> 100 µM (inactive)	> 100 µM (inactive)	> 100 µM (inactive)		> 100 µM (inactive)	> 100 µM (inactive)	> 100 µM (inactive)	> 100 µM (inactive)	> 100 µM (inactive)	> 100 µM (inactive)	> 100 µM (inactive)	> 100 µM (inactive)	> 100 µM (inactive)	> 100 µM (inactive)	> 100 µM (inactive)
CCc1cccc(C)c1NC(=O)CC1C(=O)Nc2ccccc2[S+]1[O-] (configuration not stated)	47.5 µM (inactive)			44.5 µM (inactive)	28.5 µM (inactive)	> 100 µM (inactive)	31.3 µM (inactive)	33.6 µM (inactive)		73.1 µM (inactive)		50 µM (inactive)	48.3 µM (inactive)	56.4 µM (inactive)	53.7 µM (inactive)	> 100 µM (inactive)	42.2 µM (inactive)
CN(C)CCC(/C=C/c1ccccc1)=N\Nc1ccc(Cl)cc1	2.39 µM (inactive)	2.96 µM (inactive)	2.64 µM (inactive)	1.59 µM (inactive)	12.7 µM (inactive)		7.24 µM (inactive)	2.1 µM (inactive)	6.05 µM (inactive)	12.8 µM (inactive)	3.99 µM (inactive)	2.29 µM (inactive)	3.87 µM (inactive)	1.69 µM (inactive)	2.18 µM (inactive)	1.08 µM (active)	2.07 µM (inactive)
Cn1c(=O)nc2n(-c3ccc(Cl)cc3)c(-c3ccccc3)c(-c3ccccc3)nc-2c1=O	29.8 µM (inactive)	21.9 µM (inactive)	30.1 µM (inactive)		28.4 µM (inactive)	19.2 µM (inactive)	66.2 µM (inactive)	24.7 µM (inactive)		25.5 µM (inactive)	40.3 µM (inactive)	33.6 µM (inactive)	40.7 µM (inactive)	47.2 µM (inactive)	16.5 µM (inactive)	66.8 µM (inactive)	23.6 µM (inactive)
CNc1nnnn1C1OC(CO)C(O)C1O (configuration not stated)	> 100 µM (inactive)	> 100 µM (inactive)	> 100 µM (inactive)	> 100 µM (inactive)	> 100 µM (inactive)	> 100 µM (inactive)		> 100 µM (inactive)	43.9 µM (inactive)		> 100 µM (inactive)	> 100 µM (inactive)	> 100 µM (inactive)	> 100 µM (inactive)		> 100 µM (inactive)	> 100 µM (inactive)
N#Cc1c2c(c(N=[N+]=[N-])n3c1nc1ccccc13)CCCC2	1.9 µM (inactive)		2.72 µM (inactive)	1.8 µM (inactive)	2.4 µM (inactive)	1.73 µM (inactive)	2.55 µM (inactive)	1.92 µM (inactive)	1.77 µM (inactive)	4.12 µM (inactive)	1.8 µM (inactive)	2.14 µM (inactive)	2.05 µM (inactive)	12.6 µM (inactive)		6.07 µM (inactive)	3.49 µM (inactive)
Cc1nc2c(n1Cc1ccc(Cl)cc1)C(=O)c1ccccc1C2=O	5.68 µM (inactive)	4.67 µM (inactive)	> 75 µM (inactive)	2.05 µM (inactive)	35.6 µM (inactive)	> 75 µM (inactive)	> 75 µM (inactive)	1.75 µM (inactive)	33.9 µM (inactive)	> 75 µM (inactive)	> 75 µM (inactive)	> 75 µM (inactive)		> 75 µM (inactive)			5.09 µM (inactive)
CCN(CC)C(=O)CC12CCCCC1=Nc1ccccc12 (configuration not stated)	> 100 µM (inactive)	> 100 µM (inactive)	> 100 µM (inactive)	> 100 µM (inactive)	> 100 µM (inactive)		> 100 µM (inactive)	> 100 µM (inactive)		> 100 µM (inactive)	> 100 µM (inactive)		> 100 µM (inactive)	> 100 µM (inactive)	51.6 µM (inactive)	> 100 µM (inactive)	
Cn1ccnc1Cn1cc(-c2cccc(-c3cn[nH]c3)c2)cn1	> 100 µM (inactive)	58.5 µM (inactive)		88.5 µM (inactive)				> 100 µM (inactive)	24.8 µM (inactive)	> 100 µM (inactive)	0.753 µM (active)	69.7 µM (inactive)	82.6 µM (inactive)	> 100 µM (inactive)	50.1 µM (inactive)		44.6 µM (inactive)
CC(C)=CC(=O)N(C)C1C2CN3CCC(O2)C13 (configuration not stated)	> 100 µM (inactive)	> 100 µM (inactive)	> 100 µM (inactive)	> 100 µM (inactive)	> 100 µM (inactive)	> 100 µM (inactive)	> 100 µM (inactive)	> 100 µM (inactive)	> 100 µM (inactive)	> 100 µM (inactive)	> 100 µM (inactive)	> 100 µM (inactive)	> 100 µM (inactive)	> 100 µM (inactive)		> 100 µM (inactive)	> 100 µM (inactive)
O=C1C(c2ccc([N+](=O)[O-])cc2)=[N+]([O-])c2ccccc21	> 100 µM (inactive)	22.9 µM (inactive)	43.3 µM (inactive)	21.1 µM (inactive)	36.6 µM (inactive)	34.9 µM (inactive)	23.3 µM (inactive)	37 µM (inactive)	23.3 µM (inactive)	29.3 µM (inactive)	77.6 µM (inactive)	24.5 µM (inactive)	32.4 µM (inactive)		31 µM (inactive)	22.8 µM (inactive)	40.8 µM (inactive)
COC(=O)[C@H]1[C@H]2C[C@@H]3c4[nH]c5cc(OC)ccc5c4CCN3C[C@H]2C[C@@H](OC(=O)c2cc(OC)c(OC)c(OC)c2)[C@@H]1OC [RESERPINE]	14.2 µM (inactive)	13.2 µM (inactive)	21.5 µM (inactive)		17.5 µM (inactive)	19.6 µM (inactive)	18.1 µM (inactive)	18.9 µM (inactive)		> 10 µM (inactive)			26.8 µM (inactive)	27.8 µM (inactive)	10.8 µM (inactive)	38 µM (inactive)	28.1 µM (inactive)
